From PMC4088952 (Psychoneuroendocrinology, 2014)
Where “and” joins values, the source holds several entries; their conditions need not be identical. Equal entries are not always repeated.

Tests used:
[1] = tested on: plasma OT levels; test: Plasma oxytocin levels after oral MDMA; format: in vivo, humans
[2] = tested on: subjective drug effects; test: Drug Effects Questionnaire; format: in vivo, humans; conditions: oral MDMA; all subjective ratings (DEQ and VAS)
[3] = tested on: heart rate and blood pressure; test: Cardiovascular measures; format: in vivo, humans; conditions: intranasal oxytocin 20 IU or 40 IU versus placebo

Compound | plasma OT levels compared to placebo ([1]; oral MDMA 0.75 mg/kg, N=14, t[13] = 2.96, p = 0.07) | duration of plasma OT elevation ([1]; oral MDMA 1.5 mg/kg) [h] | time of mean peak plasma OT concentration after capsule ingestion ([1]; oral MDMA 1.5 mg/kg, N=14) | time to significantly elevated plasma OT following capsule administration ([1]; oral MDMA 1.5 mg/kg, first time point) [min] | time of peak effects on all subjective ratings after capsule ingestion [2] [min] | cardiovascular and subjective effects [3] | plasma OT levels compared to placebo (intranasal oxytocin 20 IU, N=6) | duration of plasma OT elevation (intranasal oxytocin 40 IU) [min] | time of peak plasma OT after nasal spray administration (intranasal oxytocin 40 IU, N=8) [min]
CNC(C)Cc1ccc2c(c1)OCO2 (racemic) [MDMA, ±3,4-methylenedioxymethamphetamine] | slightly increased compared to placebo but this difference did not reach significance | 3 | 90 to 120 min and 120 min | ≤ 60 | 60 to 120 | – | – | – | –
CC[C@H](C)[C@@H]1NC(=O)[C@H](Cc2ccc(O)cc2)NC(=O)[C@@H](N)CSSC[C@@H](C(=O)N2CCC[C@H]2C(=O)N[C@@H](CC(C)C)C(=O)NCC(N)=O)NC(=O)[C@H](CC(N)=O)NC(=O)[C@H](CCC(N)=O)NC1=O [Oxytocin, oxytocin] | – | – | – | – | – | no cardiovascular or subjective effects | did not observe an increase in plasma OT | 30 | 30 to 60
